Experimental data reported in patent US20250361209A1, “CRYSTAL FORMS OF N-(3-FLUOROPHENYL)-6-(6,7-DIMETHOXYQUINOLIN-4-OXY)-3,4-DIHYDROQUINOLINE-1(2H)-CARBOXAMIDE METHANESULFONATE AND PREPARATION METHOD THEREOF” (Shanghai Yi Feng Biotechnology Co., Ltd., priority 2023, published 2025).
Entries after “also recorded” stand apart in the source; their conditions may differ.

Assays:
Assay type in all cases: physicochemical
Hygroscopicity, DVS test = assay: Hygroscopicity, DVS test
Experimental: The hygroscopicity of the anhydrate crystalline form C of methanesulfonate was evaluated by a DVS test at 0% RH-95% RH at 25° C.

[1] = Solid state stability of the crystalline form C of methanesulfonate (HPLC purity, XRPD); details: for change in HPLC purity: closed condition 60° C. 24 hours, open condition 25° C./60% RH 1 week or 4 weeks, methanesulfonate
Experimental: The purity decreased from 99.22 area % to 98.80 area % after the crystalline form C was placed under an open condition in an environment of 40° C./75% RH for 4 weeks, with a 0.38% increase in the impurity at RRT of 0.81.

[2] = Test of influencing factors of crystalline forms A, B and C (total impurity)
Description: Example 3 Test of Influencing Factors of Crystalline Forms A, B and C

[3] = 60° C./closed condition/24 hours
[4] = Start* (RH tests; stored at −20° C.)
[5] = open condition 40° C./75% RH, 4 weeks

COc1cc2nccc(Oc3ccc4c(c3)CCCN4C(=O)Nc3cccc(F)c3)c2cc1OC [Crystalline form C, N-(3-fluorophenyl)-6-(6,7-dimethoxyquinolin-4-oxy)-3,4-dihydroquinoline-1(2H)-carboxamide methanesulfonate]
hygroscopicity compared with other crystalline forms (Hygroscopicity, DVS test): better than that of the crystalline form A and the crystalline form B
hygroscopicity classification (Hygroscopicity, DVS test; DVS 0% RH-95% RH at 25° C., classification per Chinese Pharmacopoeia 2015): slight hygroscopicity
hygroscopic weight gain (Hygroscopicity, DVS test; DVS, 25° C./80% RH): about 0.46%
crystalline form after the DVS test (XRPD) (Hygroscopicity, DVS test; after DVS test, listed as crystalline form C of methanesulfonate, methanesulfonate): no change in crystalline form; also recorded: remained unchanged
solid state stability compared with other crystalline forms [1]: better than that of the crystalline form A and the crystalline form B
Purity, area %, peak 1 RRT 0.42 ([1]; 25° C./60% RH open, 1 week*): 0.02 area %
Purity, area %, peak 2 RRT 0.60-0.61 ([1]; 25° C./60% RH open, 1 week*): 0.04 area %
Purity, area %, peak 3 RRT 0.81 ([1]; 25° C./60% RH open, 1 week*): 0.55 area %
Purity, area %, peak 4 RRT 0.93 ([1]; 25° C./60% RH open, 1 week*): 0.05 area %
Purity, area %, peak 5 RRT 1.00 (main peak) ([1]; 25° C./60% RH open, 1 week*): 99.15 area %
Purity, area %, peak 6 RRT 1.10 ([1]; 25° C./60% RH open, 1 week*): 0.14 area %
Purity, area %, peak 7 RRT 1.27 ([1]; 25° C./60% RH open, 1 week*): 0.06 area %
Purity, area %, peak 1 RRT 0.42 ([1]; 25° C./60% RH open, 4 weeks): 0.02 area %
Purity, area %, peak 2 RRT 0.60-0.61 ([1]; 25° C./60% RH open, 4 weeks): 0.05 area %
Purity, area %, peak 3 RRT 0.81 ([1]; 25° C./60% RH open, 4 weeks): 0.54 area %
Purity, area %, peak 4 RRT 0.93 ([1]; 25° C./60% RH open, 4 weeks): 0.05 area %
Purity, area %, peak 5 RRT 1.00 (main peak) ([1]; 25° C./60% RH open, 4 weeks): 99.14 area %
Purity, area %, peak 6 RRT 1.10 ([1]; 25° C./60% RH open, 4 weeks): 0.14 area %
Purity, area %, peak 7 RRT 1.27 ([1]; 25° C./60% RH open, 4 weeks): 0.06 area %
Purity, area %, peak 1 RRT 0.42 ([1]; 40° C./75% RH open, 1 week*): 0.03 area %
Purity, area %, peak 2 RRT 0.60-0.61 ([1]; 40° C./75% RH open, 1 week*): 0.04 area %
Purity, area %, peak 3 RRT 0.81 ([1]; 40° C./75% RH open, 1 week*): 0.69 area %
Purity, area %, peak 4 RRT 0.93 ([1]; 40° C./75% RH open, 1 week*): 0.04 area %
Purity, area %, peak 5 RRT 1.00 (main peak) ([1]; 40° C./75% RH open, 1 week*): 99.02 area %
Purity, area %, peak 6 RRT 1.10 ([1]; 40° C./75% RH open, 1 week*): 0.13 area %
Purity, area %, peak 7 RRT 1.27 ([1]; 40° C./75% RH open, 1 week*): 0.06 area %
Purity, area %, peak 1 RRT 0.42 ([1]; 40° C./75% RH open, 4 weeks): 0.03 area %
Purity, area %, peak 2 RRT 0.60-0.61 ([1]; 40° C./75% RH open, 4 weeks): 0.08 area %
Purity, area %, peak 3 RRT 0.81 ([1]; 40° C./75% RH open, 4 weeks): 0.86 area %
Purity, area %, peak 4 RRT 0.93 ([1]; 40° C./75% RH open, 4 weeks): 0.05 area %
Purity, area %, peak 5 RRT 1.00 (main peak) ([1]; 40° C./75% RH open, 4 weeks): 98.80 area %
Purity, area %, peak 6 RRT 1.10 ([1]; 40° C./75% RH open, 4 weeks): 0.13 area %
Purity, area %, peak 7 RRT 1.27 ([1]; 40° C./75% RH open, 4 weeks): 0.05 area %
Purity, area %, peak 1 RRT 0.42 [1, 3]: 0.03 area %
Purity, area %, peak 2 RRT 0.60-0.61 [1, 3]: 0.05 area %
Purity, area %, peak 3 RRT 0.81 [1, 3]: 0.55 area %
Purity, area %, peak 4 RRT 0.93 [1, 3]: 0.05 area %
Purity, area %, peak 5 RRT 1.00 (main peak) [1, 3]: 99.12 area %
Purity, area %, peak 6 RRT 1.10 [1, 3]: 0.15 area %
Purity, area %, peak 7 RRT 1.27 [1, 3]: 0.05 area %
Purity, area %, peak 1 RRT 0.42 ([1]; Start (60° C. closed test)): 0.03 area %
Purity, area %, peak 2 RRT 0.60-0.61 ([1]; Start (60° C. closed test)): 0.05 area %
Purity, area %, peak 3 RRT 0.81 ([1]; Start (60° C. closed test)): 0.54 area %
Purity, area %, peak 4 RRT 0.93 ([1]; Start (60° C. closed test)): 0.05 area %
Purity, area %, peak 5 RRT 1.00 (main peak) ([1]; Start (60° C. closed test)): 99.13 area %
Purity, area %, peak 6 RRT 1.10 ([1]; Start (60° C. closed test)): 0.15 area %
Purity, area %, peak 7 RRT 1.27 ([1]; Start (60° C. closed test)): 0.06 area %
Purity, area %, peak 1 RRT 0.42 [1, 4]: 0.02 area %
Purity, area %, peak 2 RRT 0.60-0.61 [1, 4]: 0.03 area %
Purity, area %, peak 3 RRT 0.81 [1, 4]: 0.48 area %
Purity, area %, peak 4 RRT 0.93 [1, 4]: 0.05 area %
Purity, area %, peak 5 RRT 1.00 (main peak) [1, 4]: 99.22 area %
Purity, area %, peak 6 RRT 1.10 [1, 4]: 0.14 area %
Purity, area %, peak 7 RRT 1.27 [1, 4]: 0.06 area %
crystalline form after the stability test (XRPD) ([1]; after stability test): no change in crystalline form
change in HPLC purity ([1]; listed as crystalline form C of methanesulfonate): no significant decrease
change in HPLC purity [1]: No significant change
decrease in purity [1, 5]: 0.42 area %
increase in the impurity at RRT of 0.81 [1, 5]: 0.38%
Total impurity % ([2]; High humidity (RH92.5%), 0 day): 0.66%
Total impurity % ([2]; High humidity (RH92.5%), 10 days): 0.75%
Total impurity % ([2]; High humidity (RH92.5%), 30 days): 0.73%
Total impurity % ([2]; High temperature (60° C.), 0 day, methanesulfonate): 0.66%
Total impurity % ([2]; High temperature (60° C.), 10 days, methanesulfonate): 0.81%
Total impurity % ([2]; High temperature (60° C.), 30 days): 0.85%
Total impurity % ([2]; Illumination (5000 + 500 lux), 0 day, methanesulfonate): 0.66%
Total impurity % ([2]; Illumination (5000 + 500 lux), 10 days, methanesulfonate): 0.83%
Total impurity % ([2]; Illumination (5000 + 500 lux), 30 days, methanesulfonate): 0.89%
